In this test the target is acétylcholinestérase (Homo sapiens, UniProt P22303). Briefly: biochemical. The settings on record: Inhibition de l'activité de l'acétylcholinestérase; read-out: IC₅₀. From the text: Les composés de l'invention ont été soumis à des essais pharmacologiques qui ont montré leur intérét en tant qu'inhibiteurs de l'acétylcholinestérase.
Sequence of acétylcholinestérase (P22303 32-614, species assumed): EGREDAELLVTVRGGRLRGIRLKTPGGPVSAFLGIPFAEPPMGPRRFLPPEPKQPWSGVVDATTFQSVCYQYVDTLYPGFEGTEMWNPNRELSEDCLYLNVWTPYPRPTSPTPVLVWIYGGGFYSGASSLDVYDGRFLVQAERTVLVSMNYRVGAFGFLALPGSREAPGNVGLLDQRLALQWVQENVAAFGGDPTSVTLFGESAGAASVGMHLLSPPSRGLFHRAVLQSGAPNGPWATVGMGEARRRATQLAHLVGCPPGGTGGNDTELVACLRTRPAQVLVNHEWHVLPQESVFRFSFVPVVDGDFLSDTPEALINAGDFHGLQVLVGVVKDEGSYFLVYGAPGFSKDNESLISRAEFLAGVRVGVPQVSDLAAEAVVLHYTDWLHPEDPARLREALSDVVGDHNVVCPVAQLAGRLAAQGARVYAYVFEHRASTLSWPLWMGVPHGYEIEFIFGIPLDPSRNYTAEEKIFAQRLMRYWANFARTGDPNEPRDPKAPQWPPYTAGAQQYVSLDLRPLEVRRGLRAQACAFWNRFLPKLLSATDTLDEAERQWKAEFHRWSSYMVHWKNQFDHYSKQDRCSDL

With `O=C(NC(=S)NCCC1CCN(Cc2ccccc2)CC1)c1ccc2c(c1)OCO2` [compound 12], the IC50 is 18 nM.

(Values after patent EP0571511B1, “NOVEL UREAS AND THIOUREAS, PREPARATION THEREOF AND APPLICATION IN THERAPY” (priority 1991, dated 1992).)
